Results from publication PMC8883573, “New Insights Into the Function of Flavohemoglobin in Mycobacterium tuberculosis: Role as a NADPH-Dependent Disulfide Reductase and D-Lactate-Dependent Mycothione Reductase” (Frontiers in Cellular and Infection Microbiology, 2022).

Experiments:
[1] = target: trxB (Mycobacterium tuberculosis, UniProt P9WHH1); assay: DTNB reduction, absorbance at […] nm; assay type: biochemical; conditions: 5 mM DTNB, 250 µM NADPH, 100 mM potassium phosphate pH 7.0, 2 mM EDTA, 25 °C
Sequence of trxB (P9WHH1 2-335): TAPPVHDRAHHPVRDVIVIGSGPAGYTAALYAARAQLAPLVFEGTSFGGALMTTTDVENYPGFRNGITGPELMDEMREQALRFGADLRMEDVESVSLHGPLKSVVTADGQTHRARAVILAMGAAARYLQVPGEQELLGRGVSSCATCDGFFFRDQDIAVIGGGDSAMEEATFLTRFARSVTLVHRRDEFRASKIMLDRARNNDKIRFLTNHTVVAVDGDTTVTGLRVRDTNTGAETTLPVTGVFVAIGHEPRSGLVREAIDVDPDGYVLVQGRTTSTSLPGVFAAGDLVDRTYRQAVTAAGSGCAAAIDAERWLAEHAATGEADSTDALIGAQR

[2] = tested on: O=C(O)c1cc(SSc2ccc([N+](=O)[O-])c(C(=O)O)c2)ccc1[N+](=O)[O-]; assay: purified protein; assay type: biochemical, Mycolicibacterium smegmatis; conditions: pH 7.0

## O=C(O)c1cc(SSc2ccc([N+](=O)[O-])c(C(=O)O)c2)ccc1[N+](=O)[O-] [DTNB, 5,5’-dithiobis-(2-nitrobenzoic acid)]
[1]
  DTNB reduction, absorbance at 412 nm: NADPH-dependent reduction of DTNB by MtbFHb, MsFHbII, and trxB

## NC(=O)C1=CN([C@@H]2O[C@H](COP(=O)(O)OP(=O)(O)OC[C@H]3O[C@@H](n4cnc5c(N)ncnc54)[C@H](OP(=O)(O)O)[C@@H]3O)[C@@H](O)[C@H]2O)C=CC1 [NADPH]
[1]; electron donor for DTNB reduction
  DTNB reduction, absorbance at 412 nm: NADPH-dependent reduction of DTNB by MtbFHb, MsFHbII, and trxB

## MsFHbII (Mycolicibacterium smegmatis MC2 155)
[2]
  Km: 93.7 ± 7.6 µM
